From ChEMBL document CHEMBL1201862, “PubChem BioAssay data set” (2004)
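Tested at 5 concentrations; 48 h exposure; 96-well plates; endpoints linearly interpolated, else capped at highest concentration. GI50 = concentration required for 50% inhibition of growth.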 Calls of active or inactive are those of the source. No stated cut-off is given here; in the data, active = GI50 up to about 1.1 µM and inactive = higher.

What was measured:
Experiment in all cases: inhibition of tumour cell growth, NCI panel, 48 h
786-0 = test system: 786-0
A498 = test system: A498
A549 = test system: A549
ACHN = test system: ACHN
CAKI-1 = test system: CAKI-1
CCRF-CEM = test system: CCRF-CEM
COLO 205 = test system: COLO 205
DLD-1 = test system: DLD-1
DMS-114 = test system: DMS-114
DMS-273 = test system: DMS-273
EKVX = test system: EKVX
HCC 2998 = test system: HCC 2998
HCT-116 = test system: HCT-116
HCT-15 = test system: HCT-15
HL-60 = test system: HL-60
HOP-18 = test system: HOP-18
HOP-62 = test system: HOP-62
HOP-92 = test system: HOP-92
HT-29 = test system: HT-29
IGROV-1 = test system: IGROV-1
K562 = test system: K562
KM-20L2 = test system: KM-20L2
KM12 = test system: KM12
LOX IMVI = test system: LOX IMVI
LXFL 529 = test system: LXFL 529
M14 = test system: M14
M19-MEL = test system: M19-MEL
MOLT-4 = test system: MOLT-4
Malme-3M = test system: Malme-3M
NCI-H226 = test system: NCI-H226
NCI-H23 = test system: NCI-H23
NCI-H460 = test system: NCI-H460
NCI-H522 = test system: NCI-H522
OVCAR-3 = test system: OVCAR-3
OVCAR-4 = test system: OVCAR-4
OVCAR-5 = test system: OVCAR-5
OVCAR-8 = test system: OVCAR-8
RPMI-8226 = test system: RPMI-8226
RXF 393 = test system: RXF 393
RXF 631 = test system: RXF 631
SF-268 = test system: SF-268
SF-295 = test system: SF-295
SF-539 = test system: SF-539
SK-MEL-28 = test system: SK-MEL-28
SK-MEL-2 = test system: SK-MEL-2
SK-MEL-5 = test system: SK-MEL-5
SK-OV-3 = test system: SK-OV-3
SN12C = test system: SN12C
SNB-19 = test system: SNB-19
SNB-75 = test system: SNB-75
SNB-78 = test system: SNB-78
SW-620 = test system: SW-620
TK-10 = test system: TK-10
U-251 = test system: U-251
UACC-257 = test system: UACC-257
UACC-62 = test system: UACC-62
UO-31 = test system: UO-31
XF498 = test system: XF498
SR = test system: SR

For `C=CN1C(=O)OC[C@@H]1c1ccccc1`, the GI50 (786-0) was > 100 µM (inactive), the GI50 (A498) was > 100 µM (inactive) and the GI50 (A549) was > 100 µM (inactive). The GI50 (ACHN) was > 100 µM (inactive), the GI50 (CAKI-1) was > 100 µM (inactive) and the GI50 (CCRF-CEM) was > 100 µM (inactive). For the same compound, the GI50 (COLO 205) was > 100 µM (inactive), the GI50 (DLD-1) was > 100 µM (inactive) and the GI50 (DMS-114) was 34.5 µM (inactive). For the same compound, the GI50 (DMS-273) was 20 µM (inactive), the GI50 (EKVX) was > 100 µM (inactive) and the GI50 (HCC 2998) was > 100 µM (inactive). The GI50 (HCT-116) was 83.2 µM (inactive), the GI50 (HCT-15) was 16.6 µM and the GI50 (HL-60) was > 100 µM (inactive). For the same compound, the GI50 (HOP-18) was > 100 µM (inactive), the GI50 (HOP-62) was > 100 µM (inactive) and the GI50 (HOP-92) was > 100 µM (inactive). The GI50 (HT-29) was > 100 µM (inactive), the GI50 (IGROV-1) was > 100 µM (inactive) and the GI50 (K562) was > 100 µM (inactive). For the same compound, the GI50 (KM-20L2) was > 100 µM (inactive), the GI50 (KM12) was > 100 µM (inactive) and the GI50 (LOX IMVI) was 67 µM (inactive). For the same compound, the GI50 (LXFL 529) was > 100 µM (inactive), the GI50 (M14) was > 100 µM (inactive) and the GI50 (M19-MEL) was > 100 µM (inactive). For the same compound, the GI50 (MOLT-4) was > 100 µM (inactive), the GI50 (Malme-3M) was > 100 µM (inactive) and the GI50 (NCI-H226) was > 100 µM (inactive). The GI50 (NCI-H23) was > 100 µM (inactive), the GI50 (NCI-H460) was > 100 µM (inactive) and the GI50 (NCI-H522) was > 100 µM (inactive). For the same compound, the GI50 (OVCAR-3) was > 100 µM (inactive), the GI50 (OVCAR-4) was > 100 µM (inactive) and the GI50 (OVCAR-5) was > 100 µM (inactive). For the same compound, the GI50 (OVCAR-8) was > 100 µM (inactive), the GI50 (RPMI-8226) was 34.3 µM (inactive) and the GI50 (RXF 393) was > 100 µM (inactive). For the same compound, the GI50 (RXF 631) was > 100 µM (inactive), the GI50 (SF-268) was > 100 µM (inactive) and the GI50 (SF-295) was > 100 µM (inactive). For the same compound, the GI50 (SF-539) was > 100 µM (inactive), the GI50 (SK-MEL-28) was > 100 µM (inactive) and the GI50 (SK-MEL-2) was > 100 µM (inactive). For the same compound, the GI50 (SK-MEL-5) was > 100 µM (inactive), the GI50 (SK-OV-3) was > 100 µM (inactive) and the GI50 (SN12C) was > 100 µM (inactive). The GI50 (SNB-19) was > 100 µM (inactive), the GI50 (SNB-75) was > 100 µM (inactive) and the GI50 (SNB-78) was > 100 µM (inactive). For the same compound, the GI50 (SW-620) was 19.1 µM (inactive), the GI50 (TK-10) was > 100 µM (inactive) and the GI50 (U-251) was 96.6 µM (inactive). The GI50 (UACC-257) was > 100 µM (inactive), the GI50 (UACC-62) was > 100 µM (inactive) and the GI50 (UO-31) was > 100 µM (inactive). The GI50 (XF498) was 83 µM (inactive).
`O=S(=O)(/C=C/CS(=O)(=O)c1ccccc1)c1ccccc1` was tested, and the GI50 (786-0) was 24.3 µM (inactive), the GI50 (A498) was 27.5 µM (inactive) and the GI50 (A549) was 22.4 µM (inactive). The GI50 (ACHN) was 53.3 µM (inactive), the GI50 (CCRF-CEM) was 36.1 µM (inactive) and the GI50 (COLO 205) was 36.1 µM (inactive). For the same compound, the GI50 (DLD-1) was 23.6 µM (inactive), the GI50 (DMS-114) was 23.4 µM (inactive) and the GI50 (DMS-273) was 29.8 µM (inactive). The GI50 (EKVX) was 41.6 µM (inactive), the GI50 (HCC 2998) was 23.9 µM (inactive) and the GI50 (HCT-116) was 19.1 µM (inactive). For the same compound, the GI50 (HCT-15) was 17.5 µM, the GI50 (HL-60) was 15.1 µM (inactive) and the GI50 (HOP-18) was > 100 µM (inactive). The GI50 (HOP-62) was 24.9 µM (inactive), the GI50 (HOP-92) was 45 µM (inactive) and the GI50 (HT-29) was 37.8 µM (inactive). For the same compound, the GI50 (IGROV-1) was 39.8 µM (inactive), the GI50 (K562) was 25.3 µM (inactive) and the GI50 (KM-20L2) was 29.2 µM (inactive). The GI50 (KM12) was 13.8 µM (inactive), the GI50 (LOX IMVI) was 17.3 µM (inactive) and the GI50 (LXFL 529) was 29.1 µM (inactive). The GI50 (M14) was 23 µM (inactive), the GI50 (M19-MEL) was 36.1 µM (inactive) and the GI50 (MOLT-4) was 21.2 µM (inactive). For the same compound, the GI50 (Malme-3M) was 29.6 µM (inactive), the GI50 (NCI-H226) was 19.3 µM (inactive) and the GI50 (NCI-H23) was 19.2 µM (inactive). The GI50 (NCI-H460) was 21.9 µM (inactive), the GI50 (OVCAR-3) was 26.5 µM (inactive) and the GI50 (OVCAR-4) was 35.6 µM (inactive). The GI50 (OVCAR-5) was 47.1 µM (inactive), the GI50 (OVCAR-8) was 16.9 µM (inactive) and the GI50 (RPMI-8226) was 18.8 µM (inactive). The GI50 (RXF 393) was 26.9 µM (inactive), the GI50 (RXF 631) was 24.7 µM (inactive) and the GI50 (SF-268) was 26.9 µM (inactive). For the same compound, the GI50 (SF-295) was 27.9 µM (inactive), the GI50 (SF-539) was 20.3 µM (inactive) and the GI50 (SK-MEL-28) was 31.8 µM (inactive). The GI50 (SK-MEL-2) was 6.47 µM (inactive), the GI50 (SK-MEL-5) was 40.8 µM (inactive) and the GI50 (SK-OV-3) was 29.3 µM (inactive). The GI50 (SN12C) was 25.3 µM (inactive), the GI50 (SNB-19) was 34.7 µM (inactive) and the GI50 (SNB-75) was 36.1 µM (inactive). For the same compound, the GI50 (SNB-78) was 26.7 µM (inactive), the GI50 (SR) was 1.66 µM (inactive) and the GI50 (SW-620) was 20.9 µM (inactive). For the same compound, the GI50 (TK-10) was 43.7 µM (inactive), the GI50 (U-251) was 25.8 µM (inactive) and the GI50 (UACC-257) was 24.2 µM (inactive). For the same compound, the GI50 (UACC-62) was 21.5 µM (inactive), the GI50 (UO-31) was 42.5 µM (inactive) and the GI50 (XF498) was 20.7 µM (inactive).
In the case of `COc1cc(C(=O)CC2OC(=O)C(Cl)=C2Cl)ccc1Cl` (stereo not drawn), the GI50 (A498) is reported as > 100 µM (inactive), the GI50 (A549) is reported as > 100 µM (inactive) and the GI50 (ACHN) is reported as > 100 µM (inactive). The GI50 (CAKI-1) was > 100 µM (inactive), the GI50 (CCRF-CEM) was 69 µM (inactive) and the GI50 (COLO 205) was > 100 µM (inactive). The GI50 (DLD-1) was > 100 µM (inactive), the GI50 (DMS-114) was > 100 µM (inactive) and the GI50 (DMS-273) was > 100 µM (inactive). For the same compound, the GI50 (EKVX) was > 100 µM (inactive), the GI50 (HCC 2998) was > 100 µM (inactive) and the GI50 (HCT-116) was > 100 µM (inactive). For the same compound, the GI50 (HCT-15) was over 100 µM, the GI50 (HL-60) was > 100 µM (inactive) and the GI50 (HOP-18) was > 100 µM (inactive). For the same compound, the GI50 (HOP-62) was > 100 µM (inactive), the GI50 (HOP-92) was > 100 µM (inactive) and the GI50 (HT-29) was > 100 µM (inactive). The GI50 (IGROV-1) was > 100 µM (inactive), the GI50 (K562) was > 100 µM (inactive) and the GI50 (KM-20L2) was > 100 µM (inactive). The GI50 (KM12) was > 100 µM (inactive), the GI50 (LOX IMVI) was > 100 µM (inactive) and the GI50 (LXFL 529) was > 100 µM (inactive). The GI50 (M14) was > 100 µM (inactive), the GI50 (M19-MEL) was > 100 µM (inactive) and the GI50 (MOLT-4) was > 100 µM (inactive). The GI50 (Malme-3M) was > 100 µM (inactive), the GI50 (NCI-H226) was > 100 µM (inactive) and the GI50 (NCI-H23) was > 100 µM (inactive). The GI50 (NCI-H460) was > 100 µM (inactive), the GI50 (NCI-H522) was > 100 µM (inactive) and the GI50 (OVCAR-3) was > 100 µM (inactive). For the same compound, the GI50 (OVCAR-4) was > 100 µM (inactive), the GI50 (OVCAR-5) was > 100 µM (inactive) and the GI50 (OVCAR-8) was > 100 µM (inactive). For the same compound, the GI50 (RPMI-8226) was > 100 µM (inactive), the GI50 (RXF 393) was > 100 µM (inactive) and the GI50 (RXF 631) was > 100 µM (inactive). For the same compound, the GI50 (SF-268) was > 100 µM (inactive), the GI50 (SF-295) was > 100 µM (inactive) and the GI50 (SF-539) was > 100 µM (inactive). The GI50 (SK-MEL-28) was > 100 µM (inactive), the GI50 (SK-MEL-2) was > 100 µM (inactive) and the GI50 (SK-MEL-5) was > 100 µM (inactive). The GI50 (SK-OV-3) was > 100 µM (inactive), the GI50 (SN12C) was > 100 µM (inactive) and the GI50 (SNB-19) was > 100 µM (inactive). The GI50 (SNB-75) was > 100 µM (inactive), the GI50 (SNB-78) was > 100 µM (inactive) and the GI50 (SR) was > 100 µM (inactive). The GI50 (SW-620) was > 100 µM (inactive), the GI50 (TK-10) was > 100 µM (inactive) and the GI50 (U-251) was > 100 µM (inactive). For the same compound, the GI50 (UACC-257) was > 100 µM (inactive), the GI50 (UACC-62) was > 100 µM (inactive) and the GI50 (UO-31) was > 100 µM (inactive). For the same compound, the GI50 (XF498) was > 100 µM (inactive).
